Data taken from PubChem BioAssay AID1963975 (Molecular Pharmacology Branch, DTP, NCI, 2024).

System: 624824-186-R-J2-PDC multicell spheroids, viability
Test: Anticancer human tumor 624824-186-R-J2-PDC patient-derived colon adenocarcinoma cell line growth inhibition [PI3K]
Conditions: for viability, T/C: stronger effect = lower value
In short: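 We assembled tumor spheroids that included a stromal compartment of HUVEC and MSCs, then exposed them to targeted agents alone and together with PI3K pathway inhibitors. Concentration series descended by half-log from clinically achievable Cmax levels. Viability served as the endpoint.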

[1] = curve of first compound, second compound 0.0316 µM
[2] = curve of first compound, second compound 0.1 µM
[3] = curve of first compound, second compound 0.316 µM
[4] = curve of first compound, second compound 1 µM
[5] = curve of first compound, second compound 3.16 µM
[6] = curve of first compound, second compound 10 µM
[7] = second compound 0.0316 µM, first compound 0.00316 µM
[8] = second compound 0.0316 µM, first compound 0.01 µM
[9] = second compound 0.0316 µM, first compound 0.0316 µM
[10] = second compound 0.0316 µM, first compound 0.1 µM
[11] = second compound 0.0316 µM, first compound 0.316 µM
[12] = second compound 0.0316 µM, first compound 1 µM
[13] = second compound 0.1 µM, first compound 0.00316 µM
[14] = second compound 0.1 µM, first compound 0.01 µM
[15] = second compound 0.1 µM, first compound 0.0316 µM
[16] = second compound 0.1 µM, first compound 0.1 µM
[17] = second compound 0.1 µM, first compound 0.316 µM
[18] = second compound 0.1 µM, first compound 1 µM
[19] = second compound 0.316 µM, first compound 0.00316 µM
[20] = second compound 0.316 µM, first compound 0.01 µM
[21] = second compound 0.316 µM, first compound 0.0316 µM
[22] = second compound 0.316 µM, first compound 0.1 µM
[23] = second compound 0.316 µM, first compound 0.316 µM
[24] = second compound 0.316 µM, first compound 1 µM
[25] = second compound 1 µM, first compound 0.00316 µM
[26] = second compound 1 µM, first compound 0.01 µM
[27] = second compound 1 µM, first compound 0.0316 µM
[28] = second compound 1 µM, first compound 0.1 µM
[29] = second compound 1 µM, first compound 0.316 µM
[30] = second compound 1 µM, first compound 1 µM
[31] = second compound 3.16 µM, first compound 0.00316 µM
[32] = second compound 3.16 µM, first compound 0.01 µM
[33] = second compound 3.16 µM, first compound 0.0316 µM
[34] = second compound 3.16 µM, first compound 0.1 µM
[35] = second compound 3.16 µM, first compound 0.316 µM
[36] = second compound 3.16 µM, first compound 1 µM
[37] = second compound 10 µM, first compound 0.00316 µM
[38] = second compound 10 µM, first compound 0.01 µM
[39] = second compound 10 µM, first compound 0.0316 µM
[40] = second compound 10 µM, first compound 0.1 µM
[41] = second compound 10 µM, first compound 0.316 µM
[42] = second compound 10 µM, first compound 1 µM
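Further: spheroids exposed to agents for 7 days before viability read.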
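Wherever viability, T/C is given: 100% = DMSO vehicle treated spheroids.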

## CCN1CCN(Cc2ccc(Nc3ncc(F)c(-c4cc(F)c5nc(C)n(C(C)C)c5c4)n3)nc2)CC1 + CC(Nc1ncnc2nc[nH]c12)c1cc2cccc(Cl)c2c(=O)n1-c1ccccc1
[1]
  IC50: > 1000 nM
[2]
  IC50: > 1000 nM
[3]
  IC50: > 1000 nM
[4]
  IC50: > 1000 nM
[5]
  IC50: > 1000 nM
[6]
  IC50: > 1000 nM
[7]
  viability, T/C: 91.4%
[8]
  viability, T/C: 125%
[9]
  viability, T/C: 77.5%
[10]
  viability, T/C: 83.9%
[11]
  viability, T/C: 85.3%
[12]
  viability, T/C: 101%
[13]
  viability, T/C: 121%
[14]
  viability, T/C: 100%
[15]
  viability, T/C: 100%
[16]
  viability, T/C: 102%
[17]
  viability, T/C: 88.1%
[18]
  viability, T/C: 115%
[19]
  viability, T/C: 99.8%
[20]
  viability, T/C: 96.2%
[21]
  viability, T/C: 95.5%
[22]
  viability, T/C: 66.9%
[23]
  viability, T/C: 92%
[24]
  viability, T/C: 112%
[25]
  viability, T/C: 104%
[26]
  viability, T/C: 72.2%
[27]
  viability, T/C: 85.8%
[28]
  viability, T/C: 81.4%
[29]
  viability, T/C: 93.7%
[30]
  viability, T/C: 102%
[31]
  viability, T/C: 91%
[32]
  viability, T/C: 86.5%
[33]
  viability, T/C: 77.3%
[34]
  viability, T/C: 95.8%
[35]
  viability, T/C: 111%
[36]
  viability, T/C: 112%
[37]
  viability, T/C: 120%
[38]
  viability, T/C: 100%
[39]
  viability, T/C: 114%
[40]
  viability, T/C: 91.6%
[41]
  viability, T/C: 91.2%
[42]
  viability, T/C: 101%

## Cn1ncc(Cl)c1-c1cc(C(=O)NC(CN)Cc2cccc(F)c2)sc1Cl (stereo not drawn)
Compound 0.1 µM
  viability, T/C: 79.8% [middle of 4 runs]
Compound 0.316 µM
  viability, T/C: 74.5% [middle of 4 runs]
Compound 1 µM
  viability, T/C: 89.4% [middle of 4 runs]
Compound 3.16 µM
  viability, T/C: 68.2% [middle of 4 runs]
Compound 10 µM
  viability, T/C: 59.2% [middle of 4 runs]
Curve of compound
  IC50: > 10000 nM

## C=CC(=O)N1CCN(c2nc(=O)n(-c3c(C)ccnc3C(C)C)c3nc(-c4c(O)cccc4F)c(F)cc23)C(C)C1 (stereo not drawn) + Cc1nc(NC(=O)N2CCCC2C(N)=O)sc1-c1ccnc(C(C)(C)C(F)(F)F)c1
[1]
  IC50: > 10000 nM
[2]
  IC50: > 10000 nM
[3]
  IC50: > 10000 nM
[4]
  IC50: > 10000 nM
[5]
  IC50: > 10000 nM
[6]
  IC50: > 10000 nM
[9]
  viability, T/C: 98%
[10]
  viability, T/C: 71.2%
[11]
  viability, T/C: 101%
[12]
  viability, T/C: 101%
Second compound 0.0316 µM, first compound 3.16 µM
  viability, T/C: 92.8%
Second compound 0.0316 µM, first compound 10 µM
  viability, T/C: 100%
[15]
  viability, T/C: 91.9%
[16]
  viability, T/C: 107%
[17]
  viability, T/C: 105%
[18]
  viability, T/C: 80%
Second compound 0.1 µM, first compound 3.16 µM
  viability, T/C: 93.9%
Second compound 0.1 µM, first compound 10 µM
  viability, T/C: 101%
[21]
  viability, T/C: 112%
[22]
  viability, T/C: 87.8%
[23]
  viability, T/C: 91.2%
[24]
  viability, T/C: 79.9%
Second compound 0.316 µM, first compound 3.16 µM
  viability, T/C: 90.8%
Second compound 0.316 µM, first compound 10 µM
  viability, T/C: 87%
[27]
  viability, T/C: 86.2%
[28]
  viability, T/C: 79.5%
[29]
  viability, T/C: 70.4%
[30]
  viability, T/C: 84.9%
Second compound 1 µM, first compound 3.16 µM
  viability, T/C: 85.2%
Second compound 1 µM, first compound 10 µM
  viability, T/C: 67.5%
[33]
  viability, T/C: 86.8%
[34]
  viability, T/C: 88.1%
[35]
  viability, T/C: 92%
[36]
  viability, T/C: 83%
Second compound 3.16 µM, first compound 3.16 µM
  viability, T/C: 82.6%
Second compound 3.16 µM, first compound 10 µM
  viability, T/C: 93.9%
[39]
  viability, T/C: 79.2%
[40]
  viability, T/C: 86.5%
[41]
  viability, T/C: 79.5%
[42]
  viability, T/C: 91.5%
Second compound 10 µM, first compound 3.16 µM
  viability, T/C: 84.1%
Second compound 10 µM, first compound 10 µM
  viability, T/C: 77.2%

## CC1(C)CCC(Nc2ncc(C(F)(F)F)c(-c3c[nH]c4c(P(C)(C)=O)c(C#N)ccc34)n2)CN1 (stereo not drawn)
Compound 0.1 µM
  viability, T/C: 76.4% [middle of 4 runs]
Compound 0.316 µM
  viability, T/C: 102% [middle of 4 runs]
Compound 1 µM
  viability, T/C: 104% [middle of 4 runs]
Compound 3.16 µM
  viability, T/C: 62.5% [middle of 4 runs]
Compound 10 µM
  viability, T/C: 7.89% [middle of 4 runs]
Curve of compound
  IC50: 4.11 µM [middle of 4 runs]

## Cn1ncnc1[C@H]1c2n[nH]c(=O)c3cc(F)cc(c23)N[C@@H]1c1ccc(F)cc1 + CC(Nc1ncnc2nc[nH]c12)c1cc2cccc(Cl)c2c(=O)n1-c1ccccc1
[1]
  IC50: > 100 nM
[2]
  IC50: > 100 nM
[3]
  IC50: > 100 nM
[4]
  IC50: > 100 nM
[5]
  IC50: > 100 nM
[6]
  IC50: > 100 nM
Second compound 0.0316 µM, first compound 0.000316 µM
  viability, T/C: 82.5%
Second compound 0.0316 µM, first compound 0.001 µM
  viability, T/C: 85.3%
[7]
  viability, T/C: 87.6%
[8]
  viability, T/C: 89%
[9]
  viability, T/C: 75.7%
[10]
  viability, T/C: 86%
Second compound 0.1 µM, first compound 0.000316 µM
  viability, T/C: 94.6%
Second compound 0.1 µM, first compound 0.001 µM
  viability, T/C: 85%
[13]
  viability, T/C: 89.5%
[14]
  viability, T/C: 94.1%
[15]
  viability, T/C: 82.8%
[16]
  viability, T/C: 103%
Second compound 0.316 µM, first compound 0.000316 µM
  viability, T/C: 115%
Second compound 0.316 µM, first compound 0.001 µM
  viability, T/C: 102%
[19]
  viability, T/C: 96.5%
[20]
  viability, T/C: 87.5%
[21]
  viability, T/C: 110%
[22]
  viability, T/C: 86.2%
Second compound 1 µM, first compound 0.000316 µM
  viability, T/C: 72.6%
Second compound 1 µM, first compound 0.001 µM
  viability, T/C: 90.8%
[25]
  viability, T/C: 81.7%
[26]
  viability, T/C: 89.4%
[27]
  viability, T/C: 81.4%
[28]
  viability, T/C: 97.8%
Second compound 3.16 µM, first compound 0.000316 µM
  viability, T/C: 91.1%
Second compound 3.16 µM, first compound 0.001 µM
  viability, T/C: 94%
[31]
  viability, T/C: 94.2%
[32]
  viability, T/C: 92.1%
[33]
  viability, T/C: 83.5%
[34]
  viability, T/C: 78.1%
Second compound 10 µM, first compound 0.000316 µM
  viability, T/C: 88.5%
Second compound 10 µM, first compound 0.001 µM
  viability, T/C: 85.6%
[37]
  viability, T/C: 106%
[38]
  viability, T/C: 106%
[39]
  viability, T/C: 100%
[40]
  viability, T/C: 88.4%
